Assay results taken from patent publication US20260207602A1, “EGFR INHIBITORS” (Blueprint Medicines Corporation, priority 2022, published 2026).

Key:
[1] = target: T1, EGFR L858R (Homo sapiens, UniProt P00533, L858R); test: Biochemical EGFR inhibition assay (Caliper mobility shift), EGFR L858R; details: biochemical Caliper mobility shift assay, EGFR L858R enzyme; read-out: Enz EGFR L858R IC50
T1 construct: purchased SignalChem E10-122BG
Summary of the method: (§1)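 Recombinant mutant enzyme, 2.5 µM fluorescent peptide, ATP at 1.0 mM or Km, 1.0% DMSO, 25 °C. Stopped with EDTA once 10–20% of peptide was phosphorylated; apparent IC50 derived from electrophoretic product/substrate separation.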

[2] = target: T2, EGFR (d746-750) (Homo sapiens, UniProt P00533, DEL746-750); test: Biochemical EGFR inhibition assay (Caliper mobility shift), EGFR (d746-750); details: biochemical Caliper mobility shift assay, EGFR Exon 19-del enzyme; read-out: Enz EGFR Exon 19-del IC50
T2 construct: purchased SignalChem E10-122JG
T2 sequence (P00533 with tags, fused parts or gaps DEL746-750 limits assumed): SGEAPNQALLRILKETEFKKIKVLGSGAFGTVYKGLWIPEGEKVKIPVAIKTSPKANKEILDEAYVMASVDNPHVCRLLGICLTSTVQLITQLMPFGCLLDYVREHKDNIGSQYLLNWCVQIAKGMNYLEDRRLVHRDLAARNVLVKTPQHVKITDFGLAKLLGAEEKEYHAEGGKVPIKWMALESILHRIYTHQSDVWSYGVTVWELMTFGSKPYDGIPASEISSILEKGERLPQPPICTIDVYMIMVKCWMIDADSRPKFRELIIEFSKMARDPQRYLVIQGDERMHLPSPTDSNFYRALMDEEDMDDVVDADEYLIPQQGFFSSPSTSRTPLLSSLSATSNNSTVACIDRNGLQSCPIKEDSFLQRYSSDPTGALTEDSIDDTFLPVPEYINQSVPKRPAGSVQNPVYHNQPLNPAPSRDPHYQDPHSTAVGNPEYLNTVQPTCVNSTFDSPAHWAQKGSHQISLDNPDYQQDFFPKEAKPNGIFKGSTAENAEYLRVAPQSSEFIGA
Summary of the method: as §1

[3] = target: intracellular phosphorylation of EGFR (Tyr1068) in PC-9 cells (Homo sapiens, UniProt P00533, DEL746-750); test: PC-9 pEGFR AlphaLISA assay; type: cell-based; details: 4 hours incubation, read-out: Phos EGFR PC9 IC50
Sequence of intracellular phosphorylation of EGFR (Tyr1068) in PC-9 cells (P00533 with tags, fused parts or gaps DEL746-750): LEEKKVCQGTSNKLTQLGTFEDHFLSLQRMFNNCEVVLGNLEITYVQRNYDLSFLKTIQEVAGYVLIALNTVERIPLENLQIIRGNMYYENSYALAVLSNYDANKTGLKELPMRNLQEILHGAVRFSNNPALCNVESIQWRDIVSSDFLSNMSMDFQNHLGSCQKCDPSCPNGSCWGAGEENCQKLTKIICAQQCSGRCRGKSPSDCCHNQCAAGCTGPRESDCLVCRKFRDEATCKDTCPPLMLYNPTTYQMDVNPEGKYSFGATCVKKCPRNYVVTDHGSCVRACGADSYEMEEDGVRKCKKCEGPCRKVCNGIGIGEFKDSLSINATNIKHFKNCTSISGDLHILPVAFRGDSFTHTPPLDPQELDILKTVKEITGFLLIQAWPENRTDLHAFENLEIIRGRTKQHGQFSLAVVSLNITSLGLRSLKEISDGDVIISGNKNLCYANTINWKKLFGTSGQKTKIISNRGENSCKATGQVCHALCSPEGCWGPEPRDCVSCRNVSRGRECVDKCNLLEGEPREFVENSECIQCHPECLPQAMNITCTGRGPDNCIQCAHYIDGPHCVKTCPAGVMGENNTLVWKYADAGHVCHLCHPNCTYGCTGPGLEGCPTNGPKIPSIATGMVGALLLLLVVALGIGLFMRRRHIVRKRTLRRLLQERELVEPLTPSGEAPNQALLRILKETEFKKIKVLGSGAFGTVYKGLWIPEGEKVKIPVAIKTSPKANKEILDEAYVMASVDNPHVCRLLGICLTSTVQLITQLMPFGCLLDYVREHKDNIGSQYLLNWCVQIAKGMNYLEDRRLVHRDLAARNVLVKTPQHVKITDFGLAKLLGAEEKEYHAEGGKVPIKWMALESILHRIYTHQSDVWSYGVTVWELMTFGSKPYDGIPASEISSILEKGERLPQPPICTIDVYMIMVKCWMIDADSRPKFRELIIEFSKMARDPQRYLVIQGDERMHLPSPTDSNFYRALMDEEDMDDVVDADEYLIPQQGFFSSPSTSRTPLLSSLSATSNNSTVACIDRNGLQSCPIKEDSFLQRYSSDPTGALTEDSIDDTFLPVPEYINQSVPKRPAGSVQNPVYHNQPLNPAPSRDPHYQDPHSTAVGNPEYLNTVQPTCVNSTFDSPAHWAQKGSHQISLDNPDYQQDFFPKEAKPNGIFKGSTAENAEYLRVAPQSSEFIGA
Summary of the method: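 PC-9 cells (EGFR del746-750) in phenol-free DMEM/10% FBS, adhered overnight, then exposed to 10-point 4-fold compound dilutions for 4 h at 37 °C. Lysates assayed for pEGFR Tyr1068 by AlphaLISA SureFire Ultra; IC50 from percent pEGFR inhibition vs log concentration.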

T1 sequence (P00533 25-1210 L858R): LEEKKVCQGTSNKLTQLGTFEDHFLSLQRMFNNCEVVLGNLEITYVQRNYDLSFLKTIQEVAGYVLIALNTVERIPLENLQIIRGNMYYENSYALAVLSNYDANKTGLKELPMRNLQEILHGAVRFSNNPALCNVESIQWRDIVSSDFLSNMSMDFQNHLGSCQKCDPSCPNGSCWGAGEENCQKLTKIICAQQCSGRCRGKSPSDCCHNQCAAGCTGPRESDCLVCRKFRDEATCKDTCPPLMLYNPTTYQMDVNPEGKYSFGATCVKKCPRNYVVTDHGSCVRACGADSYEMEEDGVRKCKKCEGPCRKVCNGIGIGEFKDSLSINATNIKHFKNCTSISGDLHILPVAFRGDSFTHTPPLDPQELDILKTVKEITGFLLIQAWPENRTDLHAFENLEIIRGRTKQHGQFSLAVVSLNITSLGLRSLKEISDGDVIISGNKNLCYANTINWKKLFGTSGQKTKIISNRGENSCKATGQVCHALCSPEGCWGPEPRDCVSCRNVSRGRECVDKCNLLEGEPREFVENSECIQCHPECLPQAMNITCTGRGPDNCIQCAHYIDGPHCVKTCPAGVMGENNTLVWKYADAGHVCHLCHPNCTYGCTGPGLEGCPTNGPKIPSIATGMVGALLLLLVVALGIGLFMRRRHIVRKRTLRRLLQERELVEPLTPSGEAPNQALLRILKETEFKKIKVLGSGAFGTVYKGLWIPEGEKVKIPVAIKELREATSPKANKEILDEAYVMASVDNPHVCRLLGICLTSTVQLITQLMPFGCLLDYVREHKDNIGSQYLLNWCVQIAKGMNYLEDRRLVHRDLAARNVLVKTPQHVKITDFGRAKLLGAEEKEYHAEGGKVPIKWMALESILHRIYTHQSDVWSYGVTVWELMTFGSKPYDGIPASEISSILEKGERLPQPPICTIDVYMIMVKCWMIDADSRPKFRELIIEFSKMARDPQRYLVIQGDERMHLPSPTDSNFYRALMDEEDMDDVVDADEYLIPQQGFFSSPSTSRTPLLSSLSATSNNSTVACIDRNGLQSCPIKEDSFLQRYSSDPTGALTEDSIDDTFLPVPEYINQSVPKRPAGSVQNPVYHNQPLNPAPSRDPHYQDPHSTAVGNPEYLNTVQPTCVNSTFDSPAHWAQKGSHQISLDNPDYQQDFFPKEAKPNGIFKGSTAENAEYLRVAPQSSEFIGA

| IC50 [1] [nM] | IC50 [2] [nM] | IC50 [3] [nM] | SMILES |
| --- | --- | --- | --- |
| 10.1 to 50 | 10.1 to 50 | 10.1 to 50 | C[C@@H]1CN(c2cc(O[C@H](C)C3COC3)c3c(Nc4ccc5ncsc5c4F)ncnc3c2)CCN1 (single isomer, unassigned) [Example 101] |
| ≤ 10 | ≤ 10 | ≤ 10 | Cn1cc(-c2cc(O[C@H]3CC[C@@H](N(C)C)CC3)c3c(Nc4ccc5ncsc5c4)ncnc3c2)cn1 [Example 22, N-(5-(((1s,4s)-4-(dimethylamino)cyclohexyl)oxy)-7-(1-methyl-1H-pyrazol-4-yl)quinazolin-4-yl)benzo[d]thiazol-6-amine] |
| ≤ 10 | ≤ 10 | 10.1 to 50 | CN1CC[C@H](Oc2cc(-c3cnn(C)c3)cc3ncnc(Nc4ccc5ncsc5c4)c23)C1=O (single isomer, unassigned) [Example 24] |
| ≤ 10 | ≤ 10 | ≤ 10 | C[C@H](CO)Oc1cc(N2CCN(C)CC2)cc2ncnc(Nc3ccc4ncsc4c3F)c12 (single isomer, unassigned) [Example 296] |
| ≤ 10 | ≤ 10 | ≤ 10 | C[C@H](Oc1cc(-c2cnn(C)c2)cc2ncnc(Nc3ccc4ncsc4c3)c12)C(F)(F)F [Example 68, (S)-N-(7-(1-methyl-1H-pyrazol-4-yl)-5-((1,1,1-trifluoropropan-2-yl)oxy)quinazolin-4-yl)benzo[d]thiazol-6-amine] |
| ≤ 10 | ≤ 10 | 10.1 to 50 | CC(C)N1CC[C@@H](Oc2cc(-c3cnn(C)c3)cc3ncnc(Nc4ccc5ncsc5c4)c23)C1=O (single isomer, unassigned) [Example 64] |
| ≤ 10 | ≤ 10 | ≤ 10 | COc1cc2ncnc(Nc3ccc4ncsc4c3)c2cc1-c1cnn([C@@H]2CCN(C)C[C@@H]2F)c1 (racemic) [Example 165, cis-N-(6-(1-((3R,4S)-3-fluoro-1-methylpiperidin-4-yl)-1H-pyrazol-4-yl)-7-methoxyquinazolin-4-yl)benzo[d]thiazol-6-amine] |
| ≤ 10 | ≤ 10 | ≤ 10 | COc1cc2ncnc(Nc3ccc4ncsc4c3)c2cc1N[C@H]1CCN(C)C[C@@H]1F [Example 393, N4-(benzo[d]thiazol-6-yl)-N6-((3S,4S)-3-fluoro-1-methylpiperidin-4-yl)-7-methoxyquinazoline-4,6-diamine] |
| ≤ 10 | ≤ 10 | ≤ 10 | Cn1cc(-c2cc(OCC(=O)N3CCOCC3)c3c(Nc4ccc5ncsc5c4F)ncnc3c2)cn1 [Example 276, 2-((4-((7-fluorobenzo[d]thiazol-6-yl)amino)-7-(1-methyl-1H-pyrazol-4-yl)quinazolin-5-yl)oxy)-1-morpholinoethan-1-one] |
| ≤ 10 | ≤ 10 | ≤ 10 | Cn1cc(-c2cc(OCC(=O)N3CCOCC3)c3c(Nc4ccc5ncsc5c4)ncnc3c2)cn1 [Example 273, 2-((4-(benzo[d]thiazol-6-ylamino)-7-(1-methyl-1H-pyrazol-4-yl)quinazolin-5-yl)oxy)-1-morpholinoethan-1-one] |
| ≤ 10 | ≤ 10 | 10.1 to 50 | CO[C@@H]1CNCC[C@H]1Oc1cc(-c2cnn(C)c2)cc2ncnc(Nc3ccc4ncsc4c3)c12 (single isomer, unassigned) [Example A41] |
| ≤ 10 | ≤ 10 | ≤ 10 | COc1nn(C)cc1-c1cc(O[C@H]2CCNC[C@@H]2F)c2c(Nc3ccc4ncsc4c3)ncnc2c1 (single isomer, unassigned) [Example 360] |
| ≤ 10 | ≤ 10 | ≤ 10 | Cn1ccc(-c2cc3ncnc(Nc4ccc5ncsc5c4)c3cc2NC(=O)CCN2CCCCC2)n1 [Example A47, N-(4-(benzo[d]thiazol-6-ylamino)-7-(1-methyl-1H-pyrazol-3-yl)quinazolin-6-yl)-3-(piperidin-1-yl)propanamide] |
| 10.1 to 50 | ≤ 10 | 10.1 to 50 | COc1nn(C)cc1-c1cc(O[C@H]2CNC[C@H]2F)c2c(Nc3ccc4ncsc4c3)ncnc2c1 (racemic) [Example 371, N-(5-(((3S,4R)-4-fluoropyrrolidin-3-yl)oxy)-7-(3-methoxy-1-methyl-1H-pyrazol-4-yl)quinazolin-4-yl)benzo[d]thiazol-6-amine and N-(5-(((3R,4S)-4-fluoropyrrolidin-3-yl)oxy)-7-(3-methoxy-1-methyl-1H-pyrazol-4-yl)quinazolin-4-yl)benzo[d]thiazol-6-amine] |
| ≤ 10 | ≤ 10 | 10.1 to 50 | C[C@@H](Oc1cc(N2CCN(C)[C@@H](C)C2)cc2ncnc(Nc3ccc4ncsc4c3F)c12)C1COC1 (single isomer, unassigned) [Example 98] |
| ≤ 10 | ≤ 10 | ≤ 10 | COc1nn(C)cc1-c1cc(OC2CCN(C)CC2(F)F)c2c(Nc3ccc4ncsc4c3)ncnc2c1 (stereo not drawn) [Example 1, N-(5-((3,3-difluoro-1-methylpiperidin-4-yl)oxy)-7-(3-methoxy-1-methyl-1H-pyrazol-4-yl)quinazolin-4-yl)benzo[d]thiazol-6-amine] |
| ≤ 10 | ≤ 10 | ≤ 10 | CN1CCC2(COC2)C(Oc2cc(-c3cnn(C)c3)cc3ncnc(Nc4ccc5ncsc5c4)c23)C1 (stereo not drawn) [Example 352, N-(7-(1-methyl-1H-pyrazol-4-yl)-5-((7-methyl-2-oxa-7-azaspiro[3.5]nonan-5-yl)oxy)quinazolin-4-yl)benzo[d]thiazol-6-amine] |
| ≤ 10 | ≤ 10 | 10.1 to 50 | Cn1cc(-c2cc(O[C@H]3CCCNC3)c3c(Nc4ccc5ncsc5c4)ncnc3c2)cn1 [Example 134, (S)-N-(7-(1-methyl-1H-pyrazol-4-yl)-5-(piperidin-3-yloxy)quinazolin-4-yl)benzo[d]thiazol-6-amine] |
| 10.1 to 50 | ≤ 10 | 10.1 to 50 | CN1CC[C@H](Oc2cc(-c3cn(C)nc3OC(F)F)cc3ncnc(Nc4ccc5ncsc5c4)c23)[C@@H](F)C1 (single isomer, unassigned) [Example 369] |
| 10.1 to 50 | 10.1 to 50 | 10.1 to 50 | CN1CC(Oc2cc(-c3cnn(C)c3)cc3ncnc(Nc4ccc5ncsc5c4)c23)C1 [Example 27, N-(7-(1-methyl-1H-pyrazol-4-yl)-5-((1-methylazetidin-3-yl)oxy)quinazolin-4-yl)benzo[d]thiazol-6-amine] |
| ≤ 10 | ≤ 10 | 10.1 to 50 | COc1cc2ncnc(Nc3ccc4ncsc4c3)c2cc1-c1cnn([C@H]2CCN(C)C[C@@H]2F)c1 (racemic) [Example 169, trans-N-(6-(1-((3S,4S)-3-fluoro-1-methylpiperidin-4-yl)-1H-pyrazol-4-yl)-7-methoxyquinazolin-4-yl)benzo[d]thiazol-6-amine] |
| ≤ 10 | ≤ 10 | ≤ 10 | C[C@@H](O)[C@@H](C)Oc1cc(-c2cnn(C)c2)cc2ncnc(Nc3ccc4ncsc4c3)c12 [Example 184, (2R,3R)-3-((4-(benzo[d]thiazol-6-ylamino)-7-(1-methyl-1H-pyrazol-4-yl)quinazolin-5-yl)oxy)butan-2-ol] |
| ≤ 10 | ≤ 10 | ≤ 10 | C[C@H]([C@@H](C)Oc1cc(-c2cnn(C)c2)cc2ncnc(Nc3ccc4ncsc4c3)c12)N(C)C (single isomer, unassigned) [Example 143] |
